Measured values from US20100056524A1, “Compound” (priority 2008, published 2010).

Biological target: T1, TBK1 (Homo sapiens, UniProt Q9UHD2)
T1 construct: All protein kinases were of human origin and encoded full length proteins, unless indicated otherwise; His6; made in house; host or cells: insect Sf21 cells
T1 sequence (Q9UHD2 1-729): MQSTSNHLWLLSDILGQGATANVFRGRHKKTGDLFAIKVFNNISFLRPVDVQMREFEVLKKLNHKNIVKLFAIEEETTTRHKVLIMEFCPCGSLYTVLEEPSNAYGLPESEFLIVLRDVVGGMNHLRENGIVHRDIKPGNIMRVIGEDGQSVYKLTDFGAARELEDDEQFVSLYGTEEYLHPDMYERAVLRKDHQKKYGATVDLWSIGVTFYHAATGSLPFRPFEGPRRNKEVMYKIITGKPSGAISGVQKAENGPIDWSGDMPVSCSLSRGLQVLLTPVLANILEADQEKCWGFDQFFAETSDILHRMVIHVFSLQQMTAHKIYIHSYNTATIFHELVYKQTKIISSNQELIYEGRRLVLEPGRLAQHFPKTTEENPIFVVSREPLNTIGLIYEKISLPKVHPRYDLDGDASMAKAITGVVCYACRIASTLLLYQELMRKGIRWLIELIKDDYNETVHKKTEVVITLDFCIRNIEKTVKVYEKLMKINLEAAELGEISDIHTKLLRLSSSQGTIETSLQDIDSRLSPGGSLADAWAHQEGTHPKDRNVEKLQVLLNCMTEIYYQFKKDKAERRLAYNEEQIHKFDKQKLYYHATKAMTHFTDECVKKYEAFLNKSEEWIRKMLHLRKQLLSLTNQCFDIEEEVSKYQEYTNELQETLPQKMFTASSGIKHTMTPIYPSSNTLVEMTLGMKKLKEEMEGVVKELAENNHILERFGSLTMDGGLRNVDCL
Test: TBK1 protein kinase assay ([γ-33P]ATP, P81 filterplates)
Assay type: biochemical
Details: 50 μM ATP; read-out: Potency (TBK1 IC50 potency score)
How it was run: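 Human TBK1 assayed for 30 min with peptide substrate (300 μM), 50 μM [γ-33P]ATP and 10 mM magnesium acetate in 50 mM Tris/HCl pH 7.5, 0.1 mM EGTA, 0.1% 2-mercaptoethanol. Stopped with orthophosphoric acid and counted on P81 filters. IC50 from 10 compound concentrations.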

IC50, < 100 nM:
CN1CCC(c2ccc(Nc3ncc(C4CC4)c(NCCCNC(=O)C4CCC4)n3)cc2)CC1 [Example 171, Cyclobutanecarboxylic acid (3-{5-cyclopropyl-2-[4-(1-methyl-piperidin-4-yl)-phenylamino]-pyrimidin-4-ylamino}-propyl)-amide]
CN(C)CCc1ccc(Nc2ncc(C3CC3)c(NCCCNC(=O)C3CCC3)n2)cc1 [Example 172, Cyclobutanecarboxylic acid (3-{5-cyclopropyl-2-[4-(2-dimethylamino-ethyl)-phenylamino]-pyrimidin-4-ylamino}-propyl)-amide]
CN(C)Cc1ccc(Nc2ncc(C3CC3)c(NCCCNC(=O)C3CCC3)n2)cc1 [Example 173, Cyclobutanecarboxylic acid (3-{5-cyclopropyl-2-[4-(2-dimethylamino-methyl)-phenylamino]-pyrimidin-4-ylamino}-propyl)-amide]
O=C(NCCCNc1nc(Nc2ccc(C(=O)N3CCOCC3)cc2)ncc1C1CC1)C1CCC1 [Example 174, Cyclobutanecarboxylic acid (3-{5-cyclopropyl-2-[4-(morpholine-4-carbonyl)-phenylamino]-pyrimidin-4-ylamino}-propyl)-amide]
CN1CCN(C(=O)c2ccc(Nc3ncc(C4CC4)c(NCCCNC(=O)C4CCC4)n3)cc2)CC1 [Example 175, Cyclobutanecarboxylic acid (3-{5-cyclopropyl-2-[4-(4-methyl-piperazine-1-carbonyl)-phenylamino]-pyrimidin-4-ylamino}-propyl)-amide]
CN(C)CCN(C)C(=O)c1ccc(Nc2ncc(C3CC3)c(NCCCNC(=O)C3CCC3)n2)cc1 [Example 176, 4-{4-[3-(Cyclobutanecarbonyl-amino)-propylamino]-5-cyclopropyl-pyrimidin-2-ylamino}-N-(2-dimethylamino-ethyl)-N-methyl-benzamide]
O=C(NCCCNc1nc(Nc2ccc(CCO)cc2)ncc1C1CC1)C1CCC1 [Example 177, Cyclobutanecarboxylic acid (3-{5-cyclopropyl-2-[4-(2-hydroxy-ethyl)-phenylamino]-pyrimidin-4-ylamino}-propyl)-amide]
O=C(NCCCNc1nc(Nc2ccc3[nH]c(=O)[nH]c3c2)ncc1C1CC1)C1CCC1 [Example 178, Cyclobutanecarboxylic acid {3-[5-cyclopropyl-2-(2-oxo-2,3-dihydro-1H-benzimidazol-5-ylamino)-pyrimidin-4-ylamino]-propyl}-amide]
Cn1c(=O)n(C)c2cc(Nc3ncc(C4CC4)c(NCCCNC(=O)C4CCC4)n3)ccc21 [Example 179, Cyclobutanecarboxylic acid {3-[5-cyclopropyl-2-(1,3-dimethyl-2-oxo-2,3-dihydro-1H-benzimidazol-5-ylamino)-pyrimidin-4-ylamino]-propyl}-amide]
CN(C)C(=O)c1ccc(Nc2ncc(C3CC3)c(NCCCNC(=O)C3CCC3)n2)cc1 [Example 180, 4-{4-[3-(Cyclobutanecarbonyl-amino)-propylamino]-5-cyclopropyl-pyrimidin-2-ylamino}-N,N-dimethyl-benzamide]
O=C(NCCCNc1nc(Nc2ccc(-c3cnco3)cc2)ncc1C1CC1)C1CCC1 [Example 181, Cyclobutanecarboxylic acid {3-[5-cyclopropyl-2-(4-oxazol-5-yl-phenylamino)-pyrimidin-4-ylamino]-propyl}-amide]
O=C(NCCCNc1nc(Nc2ccc(Cn3cncn3)cc2)ncc1C1CC1)C1CCC1 [Example 182, Cyclobutanecarboxylic acid {3-[5-cyclopropyl-2-(4-1,2,4-triazol-1-ylmethyl-phenylamino)-pyrimidin-4-ylamino]-propyl}-amide]
O=C(NCCCNc1nc(Nc2ccc(CCN3CCCC3)cc2)ncc1C1CC1)C1CCC1 [Example 183, Cyclobutanecarboxylic acid (3-{5-cyclopropyl-2-[4-(2-pyrrolidin-1-yl-ethyl)-phenylamino]-pyrimidin-4-ylamino}-propyl)-amide]
O=C(NCCCNc1nc(Nc2ccc(N3CCCC3=O)cc2)ncc1C1CC1)C1CCC1 [Example 184, Cyclobutanecarboxylic acid (3-{5-cyclopropyl-2-[4-(2-oxo-pyrrolidin-1-yl)-phenylamino]-pyrimidin-4-ylamino}-propyl)-amide. xHCl]
O=C(NCCCNc1nc(Nc2ccc(-c3cnco3)nc2)ncc1C1CC1)C1CCC1 [Example 185, Cyclobutanecarboxylic acid {3-[5-cyclopropyl-2-(6-oxazol-5-yl-pyridin-3-ylamino)-pyrimidin-4-ylamino]-propyl}-amide]
O=C(NCCCNc1nc(Nc2ccc3nccn3c2)ncc1C1CC1)C1CCC1 [Example 186, Cyclobutanecarboxylic acid {3-[5-cyclopropyl-2-(imidazo[1,2-a]pyridin-6-ylamino)-pyrimidin-4-ylamino]-propyl}-amide]
O=C(NCCCNc1nc(Nc2ccc(NCC3CCOCC3)nc2)ncc1C1CC1)C1CCC1 [Example 187]
O=C(NCCCNc1nc(Nc2ccc(OC3CCN(C4CC4)CC3)nc2)ncc1C1CC1)C1CCC1 [Example 188, Cyclobutanecarboxylic acid (3-{5-cyclopropyl-2-[6-(1-cyclopropyl-piperidin-4-yloxy)-pyridin-3-ylamino]-pyrimidin-4-ylamino}-propyl)-amide]
O=C(NCCCNc1nc(Nc2ccc3ncnn3c2)ncc1C1CC1)C1CCC1 [Example 189, Cyclobutanecarboxylic acid {3-[5-cyclopropyl-2-([1,2,4]triazolo[1,5-a]pyridin-6-ylamino)-pyrimidin-4-ylamino]-propyl}-amide]
O=C(NCCCNc1nc(Nc2ccc3nccnc3c2)ncc1C1CC1)C1CCC1 [Example 190, Cyclobutanecarboxylic acid {3-[5-cyclopropyl-2-(quinoxalin-6-ylamino)-pyrimidin-4-ylamino]-propyl}-amide]
O=C(NCCCNc1nc(Nc2ccc3ncccc3c2)ncc1C1CC1)C1CCC1 [Example 191, Cyclobutanecarboxylic acid {3-[5-cyclopropyl-2-(quinolin-6-ylamino)-pyrimidin-4-ylamino]-propyl}-amide]
O=C(NCCCNc1nc(Nc2cnn(C3CCOCC3)c2)ncc1C1CC1)C1CCC1 [Example 192, Cyclobutanecarboxylic acid (3-{5-cyclopropyl-2-[1-(tetrahydro-pyran-4-yl)-1H-pyrazol-4-ylamino]-pyrimidin-4-ylamino}-propyl)-amide]
O=C(NCCCNc1nc(Nc2ccc3cnn(CC4CC4)c3c2)ncc1C1CC1)C1CCC1 [Example 193, Cyclobutanecarboxylic acid {3-[5-cyclopropyl-2-(1-cyclopropylmethyl-1H-indazol-6-ylamino)-pyrimidin-4-ylamino]-propyl}-amide]
